One molecule from patent US20220105096A1, “INHIBITORS OF HUMAN IMMUNODEFICIENCY VIRUS REPLICATION” (ViiV HEALTHCARE UK (NO.5) LIMITED, priority 2019, published 2022) can be followed below.

One may read the clearance as the volume of plasma or blood freed of the substance per unit of time. Broadly, the bioavailability is the share of a dose that reaches the circulation, judged against a reference dose that is usually intravenous.

The nature of data set [1]: Metabolism in human liver microsomes. In kind it is in vitro ADME. The settings on record: pH 7.4, 1 μM compound, 1 mg/mL microsomes, NADPH, 37° C., read-out: Human liver microsome T1/2. As to the method:
Liver microsomes from human, rat dog and monkey were thawed and diluted to a final concentration of 1 mg/mL in 100 mM potassium phosphate buffer (pH 7.4). Test compounds and controls were prepared at 100× final concentration of 1 μM in 1:1 acetonitrile:water (v/v) and aliquoted into microsomal mixture. The mixture was preincubated at 37° C. in a shaking water bath for 10 minutes. The incubations were performed in duplicate. Three controls were included in the incubations; warfarin, phenacetin, and verapamil. After the preincubation, the reaction was initiated with NADPH at a final concentration of 1 mM. At 0, 5, 15, 30, 45 and 60 minutes, 25 μL of sample was removed and quenched with 300 μL of acetonitrile containing internal standard (Telmisartan). The samples were vortexed for 5 minutes at 1200 rpm and then centrifuged at 4000 rpm for 10 min. A 100 μL aliquot of supernatant was diluted three-fold with water and injected on an Exion LC 4500 Triple Quad LC-MS/MS system. Results were reported as a percentage of parent remaining and was calculated from peak area ratios of test compound remaining after at each time point and compared to time zero incubation.
Background: Liver microsomes are a subcellular fraction often used to study metabolism.

Data set [2] can be described thus: Pharmacokinetic parameters in vivo, mouse. On the set-up: species or system male CD1 mice. The note with it: male, CD1, plasma. As to the method:
(§1) PK was investigated in male CD1 mice, Wistar Han Rats, Cynomolgus monkeys, and Beagle Dogs. Two groups of animals (N=3 per group) received test compound either as an intravenous (IV) dose (1 mg/kg) or by oral gavage (5 mg/kg solution and suspension). Drug was formulated in 90% PEG 400, 10% ethanol for IV administration and in 90% PEG400, 5% ethanol for PO administration. Blood samples were collected at 0.167, 0.25, 0.5, 0.75, 1, 2, 3, 5, 7, 24, 48, 72 and 96 h post dose for IV; 0.25, 0.5, 0.75, 1, 2, 3, 5, 7, 24, 48, 72 and 96 h post dose for oral. Blood samples were collected into K3EDTA tubes and centrifuged at 1500 to 2000×g to obtain plasma. Plasma samples were stored at −20° C. until analysis by LC-MS/MS. All […] samples were injected on an Exion LC 4500 Triple Quad™ LC-MS/MS system. The analytical column used was a Phenomenex C18 (C18, 4.6 mm×50 mm, 5 μm) maintained at room temperature. Mobile Phase A consisted of 0.1% (v/v) formic acid in MilliQ water. Mobile Phase B consisted of 100% methanol. The flow rate was 1 mL/min. […] All LC-MS/MS analysis parameters are captured electronically in the raw data files. The PK parameters were obtained by non-compartmental analysis of plasma concentration vs time data (Phoenix WinNonlin v8). The peak concentration (Cmax) and time for Cmax (Tmax) were recorded directly from experimental observations. The area under the curve from time zero to the last sampling time [AUC0-T] and the area under the curve from time zero to infinity [AUCINF] were calculated using a combination of linear and log trapezoidal summations. The total plasma clearance (CLTp), steady-state volume of distribution (Vss), apparent elimination half-life (T-HALF), and mean residence time (MRT) were estimated after IV administration. Estimations of AUC and T-HALF were made using a minimum of three timepoints with quantifiable concentrations. The absolute oral bioavailability (F) was estimated as the ratio of dose-normalized AUC values following oral and IV doses.

The nature of data set [3]: Pharmacokinetic parameters in vivo, dog. On the set-up: species or system Beagle Dogs. As to the method: as §1
The mark [4] stands for this setting: Beagle, plasma, Dog, IV 1 mg/kg.

For `Cn1nc(NS(C)(=O)=O)c2c(Cl)ccc(-n3c([C@H](Cc4cc(F)cc(F)c4)NC(=O)Cn4nc(C(F)F)c5c4C(F)(F)[C@@H]4C[C@H]54)nc4nc(OCCC(C)(F)F)ccc4c3=O)c21` (atropisomer, axis not shown; (P)) [Example 1, N—((S)-1-((3P)-3-(4-chloro-1-methyl-3-(methylsulfonamido)-1H-indazol-7-yl)-7-(3,3-difluorobutoxy)-4-oxo-3,4-dihydropyrido[2,3-d]pyrimidin-2-yl)-2-(3,5-difluorophenyl)ethyl)-2-((3bS,4aR)-3-(difluoromethyl)-5,5-difluoro-3b,4,4a,5-tetrahydro-1H-cyclopropa[3,4]cyclopenta[1,2-c]pyrazol-1-yl)acetamide], in data set [1], the half-life at 1 μM was greater than 2 h. Also, the clearance is 1.77 mL/min/kg in data set [2] (IV 1 mg/kg) and 1.16 mL/min/kg in data set [3] (setting [4]). In addition, the half-life in data set [2] (IV 1 mg/kg) is 7.8 h; in data set [3] (setting [4]) it was 12.4 h. The Vd in data set [2] (IV 1 mg/kg, read-out: Vss) is 1.14 L/kg; in data set [3] (Beagle, plasma, Dog, IV 1 mg/kg, read-out: Vss), 0.88 L/kg. Moreover, the bioavailability in data set [2] (oral gavage 5 mg/kg vs IV 1 mg/kg) was 76.7%; in data set [3] (Beagle, plasma, Dog, oral gavage 5 mg/kg solution vs IV 1 mg/kg) it was 34.6%. Besides, in data set [3] (dog), the “half-life in circulation higher than Example 60.2” value is reported as “five-fold”. Also, the “clearance improved relative to Example 60.2” value in data set [3] (dog, IV) is “seven-fold”.
